Inhibition data for 1 compound are collected here from article PMC6704710, “Preclinical evaluation of 3D185, a novel potent inhibitor of FGFR1/2/3 and CSF-1R, in FGFR-dependent and macrophage-dominant cancer models” (Journal of Experimental & Clinical Cancer Research : CR, 2019).

Usually inhibition stands for the change of the read-out against control, counted positive when it falls.

Experiment in all cases: Eurofins kinase panel
Holding throughout (type): biochemical
Details in all cases: read-out: Inhibition rate (%)

For one test, the target named is T1, SGK(h) (Homo sapiens, UniProt O00141).
T1 construct: purchased Eurofins (KinaseProfiler)
T1 sequence (O00141 1-431): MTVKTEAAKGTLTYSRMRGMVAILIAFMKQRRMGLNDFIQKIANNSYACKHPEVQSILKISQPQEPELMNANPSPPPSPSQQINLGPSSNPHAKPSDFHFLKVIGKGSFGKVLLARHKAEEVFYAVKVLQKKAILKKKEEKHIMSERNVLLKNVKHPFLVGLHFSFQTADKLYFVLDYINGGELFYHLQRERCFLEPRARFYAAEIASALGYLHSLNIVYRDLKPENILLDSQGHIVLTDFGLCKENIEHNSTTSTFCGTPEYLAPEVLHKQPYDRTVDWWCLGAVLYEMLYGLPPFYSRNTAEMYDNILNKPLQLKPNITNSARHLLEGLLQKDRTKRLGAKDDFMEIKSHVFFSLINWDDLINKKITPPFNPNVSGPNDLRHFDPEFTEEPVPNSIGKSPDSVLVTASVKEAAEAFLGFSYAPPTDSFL

In another test the target is T2, mTOR/FKBP12(h) (Homo sapiens, UniProt P42345).
T2 construct: purchased Eurofins (KinaseProfiler)

The target in another test is T3, ULK1(h) (Homo sapiens, UniProt O75385).
T3 construct: purchased Eurofins (KinaseProfiler)
T3 sequence (O75385 1-1050): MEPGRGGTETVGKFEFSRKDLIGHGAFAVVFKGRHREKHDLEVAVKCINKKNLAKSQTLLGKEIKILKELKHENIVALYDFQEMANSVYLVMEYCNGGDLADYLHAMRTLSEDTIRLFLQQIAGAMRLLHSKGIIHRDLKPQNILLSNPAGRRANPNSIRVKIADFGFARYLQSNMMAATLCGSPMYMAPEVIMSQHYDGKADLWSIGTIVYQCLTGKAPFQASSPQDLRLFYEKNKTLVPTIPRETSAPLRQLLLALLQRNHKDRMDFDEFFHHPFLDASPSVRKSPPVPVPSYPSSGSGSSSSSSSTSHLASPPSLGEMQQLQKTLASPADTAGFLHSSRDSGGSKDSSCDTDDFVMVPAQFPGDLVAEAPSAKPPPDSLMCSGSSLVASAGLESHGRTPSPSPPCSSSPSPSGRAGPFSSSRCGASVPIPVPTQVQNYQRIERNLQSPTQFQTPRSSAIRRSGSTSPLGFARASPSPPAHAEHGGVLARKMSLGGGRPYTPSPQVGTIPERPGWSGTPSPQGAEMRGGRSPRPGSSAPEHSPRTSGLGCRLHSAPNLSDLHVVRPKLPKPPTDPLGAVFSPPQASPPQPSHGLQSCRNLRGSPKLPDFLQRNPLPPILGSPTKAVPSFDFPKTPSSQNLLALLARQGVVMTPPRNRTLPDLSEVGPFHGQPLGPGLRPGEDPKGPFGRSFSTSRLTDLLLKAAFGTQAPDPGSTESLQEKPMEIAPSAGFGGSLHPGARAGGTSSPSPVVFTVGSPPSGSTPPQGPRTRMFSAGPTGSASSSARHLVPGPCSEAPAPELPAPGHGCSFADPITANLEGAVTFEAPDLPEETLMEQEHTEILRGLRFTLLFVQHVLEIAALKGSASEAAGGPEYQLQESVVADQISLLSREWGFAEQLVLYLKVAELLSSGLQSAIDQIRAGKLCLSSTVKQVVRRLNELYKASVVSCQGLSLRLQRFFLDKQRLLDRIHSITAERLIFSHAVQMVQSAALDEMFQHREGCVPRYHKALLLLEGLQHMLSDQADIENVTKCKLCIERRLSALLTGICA

A further test addresses T4, Blk(h) (Homo sapiens, UniProt P51451).
T4 construct: purchased Eurofins (KinaseProfiler)

Another test deals with T5, EGFR(L861Q)(h) (Homo sapiens, UniProt P00533, L861Q).
T5 construct: purchased Eurofins (KinaseProfiler)

The next test concerns the target T6, HPK1(h) (Homo sapiens, UniProt Q92918).
T6 construct: purchased Eurofins (KinaseProfiler)

The next test deals with T7, Lck(h) activated (Homo sapiens, UniProt P06239).
T7 construct: purchased Eurofins (KinaseProfiler)
T7 sequence (P06239 whole entry): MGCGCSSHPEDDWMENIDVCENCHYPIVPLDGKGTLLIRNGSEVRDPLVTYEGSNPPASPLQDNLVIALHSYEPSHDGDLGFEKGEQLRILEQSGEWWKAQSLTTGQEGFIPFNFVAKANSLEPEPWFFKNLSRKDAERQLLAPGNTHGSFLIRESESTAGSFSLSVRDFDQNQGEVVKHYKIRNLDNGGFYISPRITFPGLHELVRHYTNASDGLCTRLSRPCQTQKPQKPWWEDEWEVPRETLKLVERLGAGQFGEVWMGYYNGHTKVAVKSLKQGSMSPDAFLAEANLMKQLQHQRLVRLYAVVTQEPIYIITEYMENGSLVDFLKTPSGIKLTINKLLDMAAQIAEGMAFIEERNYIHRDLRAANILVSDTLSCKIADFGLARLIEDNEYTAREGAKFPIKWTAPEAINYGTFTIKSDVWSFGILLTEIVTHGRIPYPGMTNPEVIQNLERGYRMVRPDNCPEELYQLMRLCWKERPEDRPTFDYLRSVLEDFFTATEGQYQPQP

T6 sequence (Q92918 whole entry): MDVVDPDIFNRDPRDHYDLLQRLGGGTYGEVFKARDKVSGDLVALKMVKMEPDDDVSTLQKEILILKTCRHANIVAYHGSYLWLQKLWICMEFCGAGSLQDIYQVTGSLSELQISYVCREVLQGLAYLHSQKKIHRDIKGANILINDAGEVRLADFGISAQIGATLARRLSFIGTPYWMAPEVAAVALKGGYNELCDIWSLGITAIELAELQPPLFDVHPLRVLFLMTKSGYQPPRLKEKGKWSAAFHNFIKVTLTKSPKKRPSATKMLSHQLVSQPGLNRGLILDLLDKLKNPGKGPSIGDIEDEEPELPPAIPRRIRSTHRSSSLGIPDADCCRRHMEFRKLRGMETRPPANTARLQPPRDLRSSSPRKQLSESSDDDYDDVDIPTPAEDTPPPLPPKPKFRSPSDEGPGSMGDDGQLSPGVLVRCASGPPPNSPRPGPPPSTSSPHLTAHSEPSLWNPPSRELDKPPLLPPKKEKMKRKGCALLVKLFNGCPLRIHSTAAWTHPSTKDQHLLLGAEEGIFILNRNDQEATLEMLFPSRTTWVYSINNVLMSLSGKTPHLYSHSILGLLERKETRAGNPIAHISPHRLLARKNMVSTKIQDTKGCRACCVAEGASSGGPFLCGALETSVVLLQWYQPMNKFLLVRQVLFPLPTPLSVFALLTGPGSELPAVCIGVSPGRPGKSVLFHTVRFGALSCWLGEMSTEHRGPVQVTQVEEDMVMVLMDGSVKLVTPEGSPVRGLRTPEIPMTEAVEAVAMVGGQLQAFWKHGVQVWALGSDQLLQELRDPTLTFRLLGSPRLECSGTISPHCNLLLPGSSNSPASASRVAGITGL
T4 sequence (P51451 whole entry): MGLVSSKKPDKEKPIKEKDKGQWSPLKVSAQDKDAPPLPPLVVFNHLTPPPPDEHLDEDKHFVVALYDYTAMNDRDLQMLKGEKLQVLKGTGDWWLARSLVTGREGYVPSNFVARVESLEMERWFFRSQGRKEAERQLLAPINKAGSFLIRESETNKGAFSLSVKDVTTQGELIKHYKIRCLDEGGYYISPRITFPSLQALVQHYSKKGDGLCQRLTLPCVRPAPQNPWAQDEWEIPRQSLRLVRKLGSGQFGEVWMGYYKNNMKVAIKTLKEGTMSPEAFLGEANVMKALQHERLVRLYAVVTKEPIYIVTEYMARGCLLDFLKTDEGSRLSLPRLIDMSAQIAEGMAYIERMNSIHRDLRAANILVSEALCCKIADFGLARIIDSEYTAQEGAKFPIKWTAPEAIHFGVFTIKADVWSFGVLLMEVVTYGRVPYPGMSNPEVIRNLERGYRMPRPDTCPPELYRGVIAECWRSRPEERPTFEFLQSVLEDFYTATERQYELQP
T2 sequence (P42345 1362-2549 limits assumed): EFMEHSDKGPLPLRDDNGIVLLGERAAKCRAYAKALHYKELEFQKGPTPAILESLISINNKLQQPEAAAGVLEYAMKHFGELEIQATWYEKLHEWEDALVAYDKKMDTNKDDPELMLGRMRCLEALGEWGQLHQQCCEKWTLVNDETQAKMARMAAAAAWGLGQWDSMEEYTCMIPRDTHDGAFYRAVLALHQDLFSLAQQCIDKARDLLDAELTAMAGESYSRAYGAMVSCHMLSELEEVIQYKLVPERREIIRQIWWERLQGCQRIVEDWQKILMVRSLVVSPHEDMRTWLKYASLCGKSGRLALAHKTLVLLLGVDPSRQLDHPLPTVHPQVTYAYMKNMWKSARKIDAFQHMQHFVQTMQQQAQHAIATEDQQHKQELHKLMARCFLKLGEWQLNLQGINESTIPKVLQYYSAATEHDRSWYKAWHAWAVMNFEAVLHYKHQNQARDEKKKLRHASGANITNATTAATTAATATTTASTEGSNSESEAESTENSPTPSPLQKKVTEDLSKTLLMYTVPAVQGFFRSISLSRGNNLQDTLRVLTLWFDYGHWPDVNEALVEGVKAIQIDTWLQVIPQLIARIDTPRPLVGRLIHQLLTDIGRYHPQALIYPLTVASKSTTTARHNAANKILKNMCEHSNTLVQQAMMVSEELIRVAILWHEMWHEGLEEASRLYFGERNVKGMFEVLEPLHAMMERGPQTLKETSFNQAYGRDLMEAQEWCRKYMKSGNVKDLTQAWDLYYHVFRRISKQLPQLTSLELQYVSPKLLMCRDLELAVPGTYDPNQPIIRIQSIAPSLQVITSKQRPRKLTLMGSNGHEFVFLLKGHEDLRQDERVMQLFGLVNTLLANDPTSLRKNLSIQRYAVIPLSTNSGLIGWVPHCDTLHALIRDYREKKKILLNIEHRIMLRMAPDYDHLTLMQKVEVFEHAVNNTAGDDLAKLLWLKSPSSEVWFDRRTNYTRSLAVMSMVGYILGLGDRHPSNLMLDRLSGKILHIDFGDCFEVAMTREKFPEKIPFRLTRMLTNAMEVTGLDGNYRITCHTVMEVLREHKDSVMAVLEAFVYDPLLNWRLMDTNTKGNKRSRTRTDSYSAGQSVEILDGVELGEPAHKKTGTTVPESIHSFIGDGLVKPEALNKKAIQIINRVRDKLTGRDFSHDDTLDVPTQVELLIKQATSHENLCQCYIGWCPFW
T5 sequence (P00533 25-1210 L861Q): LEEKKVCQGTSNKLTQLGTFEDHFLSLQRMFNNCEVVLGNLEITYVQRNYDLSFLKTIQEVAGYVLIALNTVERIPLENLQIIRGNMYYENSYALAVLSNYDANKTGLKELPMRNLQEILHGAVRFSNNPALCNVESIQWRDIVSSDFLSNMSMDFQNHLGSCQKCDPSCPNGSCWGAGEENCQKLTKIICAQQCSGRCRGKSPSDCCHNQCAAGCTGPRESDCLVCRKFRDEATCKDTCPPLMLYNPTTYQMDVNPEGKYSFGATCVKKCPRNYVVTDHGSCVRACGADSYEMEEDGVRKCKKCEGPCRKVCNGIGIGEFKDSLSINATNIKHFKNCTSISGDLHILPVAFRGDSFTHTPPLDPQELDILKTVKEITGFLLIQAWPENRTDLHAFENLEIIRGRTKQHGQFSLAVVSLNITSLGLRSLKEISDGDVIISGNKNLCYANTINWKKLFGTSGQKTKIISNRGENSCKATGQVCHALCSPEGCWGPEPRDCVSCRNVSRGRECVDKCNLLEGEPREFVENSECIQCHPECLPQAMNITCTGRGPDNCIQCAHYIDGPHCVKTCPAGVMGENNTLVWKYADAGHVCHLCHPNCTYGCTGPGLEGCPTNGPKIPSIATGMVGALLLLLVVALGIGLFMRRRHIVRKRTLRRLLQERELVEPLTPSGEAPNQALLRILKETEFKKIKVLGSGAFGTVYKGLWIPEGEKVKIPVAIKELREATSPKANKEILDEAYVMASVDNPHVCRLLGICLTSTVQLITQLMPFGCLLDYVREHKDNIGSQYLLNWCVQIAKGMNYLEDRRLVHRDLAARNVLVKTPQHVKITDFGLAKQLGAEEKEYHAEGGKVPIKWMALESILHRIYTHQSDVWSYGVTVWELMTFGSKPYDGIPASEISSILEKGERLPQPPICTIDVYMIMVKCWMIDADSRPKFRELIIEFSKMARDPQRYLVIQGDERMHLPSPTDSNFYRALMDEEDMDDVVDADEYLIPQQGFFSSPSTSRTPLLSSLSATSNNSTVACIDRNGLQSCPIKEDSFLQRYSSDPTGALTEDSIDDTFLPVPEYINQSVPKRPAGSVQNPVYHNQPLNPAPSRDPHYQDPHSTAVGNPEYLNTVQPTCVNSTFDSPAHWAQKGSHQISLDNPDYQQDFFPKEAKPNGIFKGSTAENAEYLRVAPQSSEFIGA

With `COc1cc(OC)c(Cl)c(-c2ccc3c(NC(=O)c4ccc(N5CCNC(C)(C)C5)cc4)n[nH]c3n2)c1Cl` [3D185], the inhibition at 0.01 µM was -4% on SGK(h) (10 nM); 1% on mTOR/FKBP12(h) (10 nM); -2% on ULK1(h) (10 nM); -18% at Blk(h) (10 nM); -5% at EGFR(L861Q)(h) (10 nM); 17% at HPK1(h) (10 nM). The inhibition at 0.01 µM at Lck(h) activated (10 nM) came to 16%. Moreover, the inhibition at 0.1 µM was -13% on SGK(h) (100 nM); 0% on mTOR/FKBP12(h) (100 nM); 4% on ULK1(h) (100 nM); 16% on Blk(h) (100 nM); -5% at EGFR(L861Q)(h) (100 nM); 65% on HPK1(h) (100 nM). In addition, the inhibition at 0.1 µM on Lck(h) activated (100 nM) is 59%. The inhibition at 1 µM on SGK(h) (1000 nM) was -7%; at mTOR/FKBP12(h) (1000 nM), 2%; at ULK1(h) (1000 nM), 5%; at Blk(h) (1000 nM), 88%; on EGFR(L861Q)(h) (1000 nM), 39%; at HPK1(h) (1000 nM), 94%. Moreover, the inhibition at 1 µM at Lck(h) activated (1000 nM) worked out at 92%.
